Laboratory results from patent US4851414A, “Anti-dementia agent” (Kyowa Hakko Kagyo Co., Ltd., priority 1987, dated 1989).

Columns and labels:
[1] = Activity on Scopolamine-induced Amnesia (step-through passive avoidance); assay type: in vivo, rat (Wistar strain, male); settings: for Number of Rats that Reached Standard Point / Number of Rats Tested: standard point 600 seconds
Source text: As the experimental device, a step-through type passive avoidance training box composed of a light room and a dark room (light room: 400×400×400 mm; dark room 200×150×200 mm) was used. In the acquisition trial where learning is made, rats put in the light room move to the dark room. Each time the rats entered the dark room, electric stimulation of 2 mA was given to four limbs of each rat for 3 seconds from grids on the floor.

[2] = Activity on Electroconvulsive Shock-induced Amnesia (step-through passive avoidance, light-and-dark box); assay type: in vivo, mouse (dd strain, male); settings: for reaction latent time: Tables 2-2, 2-3 and 2-4, oral
Method: The antiamnestic activity was measured by using the light-and-dark box method. Symbols of the test compounds correspond to said compounds (Table 1).
As the test animals, 14 to 15 dd strain male mice (body weight: 23-28 g) were used for each group. As the experimental device, a step-through type passive avoidance training box composed of a light room and a dark room (light room: 130×90×90 mm; dark room 180×90×90 mm) was used.
In the acquisition trial where learning takes place, mice put in the light room move to the dark room. Each time the mice entered the dark room, electric stimulation of 0.25 mA was given to four limbs of each mouse for 2 seconds from grids on the floor.
Amnesia-inducing treatment was performed by electroconvulsive shock (2,000 V, 25 mA, 0.2 seconds) immediately after completion of the acquisition trial. After 24 hours, the test trial was conducted to measure the length of time before the mice entered the dark room. This time period, termed the reaction latent time, was recorded. A reaction latent time longer than 600 seconds was recorded as 600 seconds.
A test compound was suspended in 0.3% sodium carboxymethyl cellulose (hereinafter referred to as "CMC"). That suspension and a control of 0.3% CMC without any test compound were respectively administered to the mice 60 minutes prior to each test trial.
The effect was evaluated by Student-t test to determine whether there was a significant difference in reaction latent time between the amnesia control group and the group administered with the test compound in the passive avoidance test trial.

[3] = Acute Toxicity, mice; settings: in vivo; oral, mouse (male)
Method: (§1) Acute toxicity test was carried out by orally administering Compound (I) used in the present invention to mice (male) and rats (male).

[4] = Acute Toxicity, rats; settings: in vivo; oral, rat (male)
Method: as §1

[5] = Activity on Amnesia due to Damage of Basal Forebrain (kainic acid lesion, passive avoidance); assay type: in vivo, rat (Wistar strain, male); settings: for Number of Rats that Reached Standard Point / Number of Rats Tested: standard point 600 seconds
Method: As the test animals, 13 to 39 Wistar strain male rats (body weight: 250-300 g) were used for each group. Amnesia-inducing treatment was effected by damaging the basal forebrain through injection of 0.2 μg/μl kainic acid at the basal forebrain from both sides under anesthesia with pentobarbital-Na.
After the recovery period of about 10 days following the operation, the trial for acquiring learning (training) was performed in a similar manner using the same experimental device as in Experiment 2. After 24 hours, the test trial was carried out.
Measurement of the latent time was carried out in a similar manner as in Experiment 1. Test Compound B and idebenone were suspended in 0.3% CMC, and the suspension was administered twice 60 minutes prior to the training and 60 minutes prior to the test.
Alternatively, the suspension was administered for 9 consecutive days after the recovery period. In this case, Compound B was orally administered and idebenone was intraperiotoneally administered; and the training was conducted on day 8 and the test trial was conducted on day 9. […]

[6] = idebenone intraperitoneal, imipramine oral
[7] = 2.5 mg/kg, administered for 9 days, oral
[8] = 10 mg/kg, administered for 9 days, oral
[9] = 2.5 mg/kg, administered for 9 days, intraperitoneal
[10] = 10 mg/kg, administered for 9 days, intraperitoneal

CN(C)CCCN1c2ccccc2CCc2ccccc21 [Imipramine, imipramine]
Test Trial Mean Reaction Latent Time ([1]; 20 mg/kg, oral): 110.4 ± 44.3 s
Number of Rats that Reached Standard Point / Number of Rats Tested ([1]; 20 mg/kg, oral): 1/13
Test Trial Mean Reaction Latent Time ([1]; 40 mg/kg, oral): 186.6 ± 54.0 s
Number of Rats that Reached Standard Point / Number of Rats Tested ([1]; 40 mg/kg, oral): 1/13
antiamnestic activity [1, 6]: showed no antiamnestic activity
ataxis in motor coordination, order of intensity ([2]; Table 2-6, oral): amitriptyline>desipramine>imipramine

CC(=O)Nc1ccc(Cc2ccccn2)c([N+](=O)[O-])c1 [Compound A, α-(p-Acetylamino-o-nitrobenzyl)pyridine]
LD50 [3]: 660 mg/kg
LD50 [4]: > 200 mg/kg
reaction latent time [2]: prolonged

CCCCCCCCCC(=O)Nc1ccc(Cc2ccccn2)c([N+](=O)[O-])c1 [Compound F, α-(p-Decanoylamino-o-nitrobenzyl)pyridine]
LD50 [3]: > 1000 mg/kg
LD50 [4]: > 100 mg/kg

CNCCCN1c2ccccc2CCc2ccccc21 [Desipramine, desipramine, reference compound]
ataxis in motor coordination, order of intensity ([2]; Table 2-6, oral): amitriptyline>desipramine>imipramine

CCCCCC(=O)Nc1ccc(Cc2ccccn2)c([N+](=O)[O-])c1 [Compound D, α-(p-Hexanoylamino-o-nitrobenzyl)pyridine]
LD50 [3]: > 1000 mg/kg
LD50 [4]: > 100 mg/kg
reaction latent time [2]: prolonged

CN(C)CCC=C1c2ccccc2CCc2ccccc21 [Amitriptyline, amitriptyline, reference compound]
ataxis in motor coordination, order of intensity ([2]; mouse, in vivo, po): amitriptyline>desipramine>imipramine

CCCC(=O)Nc1ccc(Cc2ccccn2)c([N+](=O)[O-])c1 [Compound B, α-(p-Butyrylamino-o-nitrobenzyl)pyridine]
LD50 [3]: 1530 mg/kg
LD50 [4]: > 850 mg/kg
Test Trial Mean Reaction Latent Time ([1]; 2.5 mg/kg, oral): 94.3 ± 30.3 s
Number of Rats that Reached Standard Point / Number of Rats Tested ([1]; 2.5 mg/kg, oral): 1/20
Test Trial Mean Reaction Latent Time ([1]; 5 mg/kg, oral): 148.9 ± 54.3 s
Number of Rats that Reached Standard Point / Number of Rats Tested ([1]; 5 mg/kg, oral): 3/17
Test Trial Mean Reaction Latent Time ([1]; 10 mg/kg, oral): 201.2 ± 55.5 s
Number of Rats that Reached Standard Point / Number of Rats Tested ([1]; 10 mg/kg, oral): 4/20
Test Trial Mean Reaction Latent Time ([1]; 20 mg/kg, oral): 172.4 ± 52.6 s
Number of Rats that Reached Standard Point / Number of Rats Tested ([1]; 20 mg/kg, oral): 2/17
Test Trial Mean Reaction Latent Time ([1]; 40 mg/kg, oral): 171.2 ± 52.5 s
Number of Rats that Reached Standard Point / Number of Rats Tested ([1]; 40 mg/kg, oral): 4/20
antiamnestic activity ([1]; oral, dose of 5 to 40 mg/kg): showed an antiamnestic activity
reaction latent time compared with the amnestic control group ([2]; doses of 10, 40, 80 and 160 mg/kg, oral): significantly prolonged
Test Trial Mean Reaction Latent Time [5, 7]: 243.2 ± 73.7 s
Number of Rats that Reached Standard Point / Number of Rats Tested [5, 7]: 4/13
Test Trial Mean Reaction Latent Time ([5]; 2.5 mg/kg, administered twice): 121.8 ± 36.5 s
Number of Rats that Reached Standard Point / Number of Rats Tested ([5]; 2.5 mg/kg, administered twice): 1/19
Test Trial Mean Reaction Latent Time ([5]; 5 mg/kg, administered twice): 215.5 ± 60.0 s
Number of Rats that Reached Standard Point / Number of Rats Tested ([5]; 5 mg/kg, administered twice): 5/19
Test Trial Mean Reaction Latent Time [5, 8]: 259.0 ± 78.5 s
Number of Rats that Reached Standard Point / Number of Rats Tested [5, 8]: 5/13
Test Trial Mean Reaction Latent Time ([5]; 10 mg/kg, administered twice): 191.2 ± 57.7 s
Number of Rats that Reached Standard Point / Number of Rats Tested ([5]; 10 mg/kg, administered twice): 3/18
Test Trial Mean Reaction Latent Time ([5]; 20 mg/kg, administered twice): 209.2 ± 60.2 s
Number of Rats that Reached Standard Point / Number of Rats Tested ([5]; 20 mg/kg, administered twice): 4/18
Test Trial Mean Reaction Latent Time ([5]; 40 mg/kg, administered twice): 163.0 ± 51.5 s
Number of Rats that Reached Standard Point / Number of Rats Tested ([5]; 40 mg/kg, administered twice): 2/18
improving activity ([5]; 9 consecutive days, 10 mg/kg, oral): significant (P<0.05) improving activity
activity of alleviating learning disturbance ([5]; administered twice, 2.5 mg/kg or more): showed an activity of alleviating learning disturbance
improving activity in the learning-disturbed animal model ([5]; rat, in vivo): apparent improving activity

COC1=C(OC)C(=O)C(CCCCCCCCCCO)=C(C)C1=O [Idebenone, idebenone, reference compound]
Test Trial Mean Reaction Latent Time ([1]; 2.5 mg/kg, intraperitoneal): 58.4 ± 19.7 s
Number of Rats that Reached Standard Point / Number of Rats Tested ([1]; 2.5 mg/kg, intraperitoneal): 0/10
Test Trial Mean Reaction Latent Time ([1]; 5 mg/kg, intraperitoneal): 110.6 ± 30.2 s
Number of Rats that Reached Standard Point / Number of Rats Tested ([1]; 5 mg/kg, intraperitoneal): 0/10
Test Trial Mean Reaction Latent Time ([1]; 10 mg/kg, intraperitoneal): 148.8 ± 60.2 s
Number of Rats that Reached Standard Point / Number of Rats Tested ([1]; 10 mg/kg, intraperitoneal): 0/10
antiamnestic activity [1, 6]: showed no antiamnestic activity
Test Trial Mean Reaction Latent Time [5, 9]: 382.8 ± 80.2 s
Number of Rats that Reached Standard Point / Number of Rats Tested [5, 9]: 7/13
Test Trial Mean Reaction Latent Time [5, 10]: 178.2 ± 68.2 s
Number of Rats that Reached Standard Point / Number of Rats Tested [5, 10]: 3/13
Test Trial Mean Reaction Latent Time ([5]; 10 mg/kg, administered twice): 52.0 ± 22.1 s
Number of Rats that Reached Standard Point / Number of Rats Tested ([5]; 10 mg/kg, administered twice): 0/14
Test Trial Mean Reaction Latent Time ([5]; 20 mg/kg, administered twice): 15.2 ± 3.4 s
Number of Rats that Reached Standard Point / Number of Rats Tested ([5]; 20 mg/kg, administered twice): 0/14
Test Trial Mean Reaction Latent Time ([5]; 40 mg/kg, administered twice): 27.7 ± 8.9 s
Number of Rats that Reached Standard Point / Number of Rats Tested ([5]; 40 mg/kg, administered twice): 0/14
improving effect ([5]; 9 consecutive days, 2.5 mg/kg, intraperitoneal): apparent improving effect
improving effect ([5]; administered twice, 10 to 40 mg/kg): showed no improving effect

CCCCCCCC(=O)Nc1ccc(Cc2ccccn2)c([N+](=O)[O-])c1 [Compound E, α-(p-Octanoylamino-o-nitrobenzyl)pyridine]
LD50 [3]: > 1000 mg/kg
LD50 [4]: > 100 mg/kg

CCCCCCCCCCCCCC(=O)Nc1ccc(Cc2ccccn2)c([N+](=O)[O-])c1 [Compound G, α-(p-Myristylamino-o-nitrobenzyl)pyridine]
LD50 [3]: > 1000 mg/kg
LD50 [4]: > 100 mg/kg
reaction latent time [2]: prolonged

CCCCC(=O)Nc1ccc(Cc2ccccn2)c([N+](=O)[O-])c1 [Compound C, α-(p-Valerylamino-o-nitrobenzyl)pyridine]
LD50 [3]: > 300 mg/kg
reaction latent time [2]: prolonged
